Laboratory results taken from US10106534B2 (CELGENE QUANTICEL RESEARCH, INC., priority 2014, dated 2018).
Where a name gives a salt, the structure may show the parent alone.

Legend:
JMJD2C = JMJD2C (Homo sapiens (Human), UniProt Q9H3R0); assay: In vitro enzyme inhibition assay for JMJD2C activity (TR-FRET); type: biochemical
Method: This assay determines the ability of a test compound to inhibit JMJD2C demethylase activity. Baculovirus expressed JMJD2C (GenBank Accession #BC143571, AA 2-372) was purchased from BPS Bioscience (Cat#50105).
The ability of test compounds to inhibit the activity of JMJD2C was determined in 384-well plate format under the following reaction conditions: 0.3 nM JMJD2C, 300 nM H3K9me3-biotin labeled peptide (Anaspec cat #64360), 2 μM alpha-ketoglutaric acid in assay buffer of 50 mM HEPES, pH7.3, 0.005% Brij35, 0.5 mM TCEP, 0.2 mg/ml BSA, 50 μM sodium L-ascorbate, and 2 μM ammonium iron(II) sulfate. Reaction product was determined quantitatively by TR-FRET after the addition of detection reagent Phycolink Streptavidin-allophycocyanin (Prozyme) and Europium-anti-di-methylated histone H3 lysine 9 (H3K9me2) antibody (PerkinElmer) in the presence of 5 mM EDTA in LANCE detection buffer (PerkinElmer) at a final concentration of 50 nM and 1 nM, respectively.
The assay reaction was initiated by the following: 2 μl of the mixture of 900 nM H3K9me3-biotin labeled peptide and 6 μM alpha-ketoglutaric acid with 2 μl of 11-point serial diluted inhibitor in 3% DMSO were added to each well of the plate, followed by the addition of 2 μl of 0.9 nM JMJD2C to initiate the reaction. The reaction mixture was incubated at room temperature for 30 minutes, and terminated by the addition of 6 μl of 5 mM EDTA in LANCE detection buffer containing 100 nM Phycolink Streptavidin-allophycocyanin and 2 nM Europium-anti-H3K9me2 antibody. Plates were read by EnVisionMultilabel Reader in TR-FRET mode (excitation at 320 nm, emission at 615 nm and 665 nm) after 1 hour incubation at room temperature. A ratio was calculated (665/615) for each well and fitted to determine inhibition constant (IC50).

[1] = system: KYSE-150 esophageal carcinoma cell line; assay: In vitro cell-based assay: cellular proliferation via BrdU incorporation (ELISA); set-up: species or system human; conditions: KYSE-150, 168 hours compound incubation
Method: The primary cellular assay for JMJD2C inhibition is an assay which measures cellular proliferation via Bromodeoxyuridine (BrdU) incorporation after 168 hours of compound incubation. Cell lines tested include the JMJD2C gene amplified cell line KYSE-150. This is a quantitative ELISA assay measuring DNA incorporation of BrdU during S-phase as a direct readout of cellular proliferation.
Assay Principle: This is a colorimetric immunoassay for the quantification of cell proliferation. Cells treated for 168 hours with test compounds are assayed for their ability to go through S-phase as a measure of their proliferative potential.
Assay Method: The human KYSE-150 (SMAD4 mut, TP53 mut) esophageal carcinoma cell line was seeded at 2,000 cells/well on a 96-well tissue culture treated plate. After an overnight incubation, cells were treated with compound in an 11-point dilution series with final concentrations ranging from 100 μM to 2 nM. Cells were then incubated in the presence of compound for 168 hours. After compound incubation the cells were assayed using a BrdU Cell Proliferation ELISA (Roche). The cells were first incubated with BrdU labeling reagent for 2 hours. After 2 hours, the BrdU incorporated cells were fixed and denatured, probed with an anti-BrdU-Peroxidase antibody for 1.5 hours and washed. Finally, a tetramethylbenzidine peroxidase substrate was added to each well for 15 minutes followed by a H2SO4 stop solution. The plate was read at 450 nm, and the raw optical density data was transferred into XLFit (IDBS) for IC50 calculation using the formula: fit=(D+((Vmax*(x^n))/((x^n)+(Km^n))))

Sequence of JMJD2C (Q9H3R0 2-372): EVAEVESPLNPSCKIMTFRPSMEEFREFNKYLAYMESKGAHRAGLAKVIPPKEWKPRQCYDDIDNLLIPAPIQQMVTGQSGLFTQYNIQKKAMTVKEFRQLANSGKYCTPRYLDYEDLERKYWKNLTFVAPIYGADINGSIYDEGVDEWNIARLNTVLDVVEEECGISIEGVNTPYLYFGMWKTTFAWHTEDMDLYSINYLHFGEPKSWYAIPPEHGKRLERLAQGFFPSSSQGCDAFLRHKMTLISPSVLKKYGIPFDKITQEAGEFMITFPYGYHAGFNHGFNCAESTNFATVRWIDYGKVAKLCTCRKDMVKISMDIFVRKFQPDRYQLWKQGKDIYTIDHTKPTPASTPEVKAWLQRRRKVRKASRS

## O=C(O)c1ccncc1NC[C@@H]1CCCc2cc(Sc3ccccc3F)ccc21 [Example 73, 3-({[(1R)-6-[(2-fluorophenyl)sulfanyl]-1,2,3,4-tetrahydronaphthalen-1-yl]methyl}amino)pyridine-4-carboxylic acid]
JMJD2C
  IC50: 100 to 1000 nM
[1]; Homo sapiens
  IC50: 100 to 1000 nM

## COc1cc2c(cc1F)[C@H](CNc1cnccc1C(=O)O)CCC2 [Example 97, 3-({[(1R)-7-fluoro-6-methoxy-1,2,3,4-tetrahydronaphthalen-1-yl]methyl}amino)pyridine-4-carboxylic acid]
JMJD2C
  IC50: 100 to 1000 nM
[1]; Homo sapiens
  IC50: 1000 to 10000 nM

## Cc1ccc(F)cc1-c1ccc2c(c1)OCC[C@H]2CNc1cnccc1C(=O)O [Example 43, 3-({[(4R)-7-(5-fluoro-2-methylphenyl)-3,4-dihydro-2H-1-benzopyran-4-yl]methyl}amino)pyridine-4-carboxylic acid]
JMJD2C
  IC50: 100 to 1000 nM
[1]; Homo sapiens
  IC50: ≤ 100 nM

## O=C(O)c1ccncc1NCC1OCCc2ccccc21 (stereo not shown) [Example 142, 3-[(3,4-dihydro-1H-2-benzopyran-1-ylmethyl)amino]pyridine-4-carboxylic acid]
JMJD2C
  IC50: 100 to 1000 nM
[1]; Homo sapiens
  IC50: > 10000 nM

## Cc1cc(-c2ccc3c(c2)CCCC3CNc2cnccc2C(=O)O)ccn1 (stereo not shown) [Example 89, 3-({[6-(2-methylpyridin-4-yl)-1,2,3,4-tetrahydronaphthalen-1-yl]methyl}amino)pyridine-4-carboxylic acid, hydrochloride]
JMJD2C
  IC50: 100 to 1000 nM
[1]; Homo sapiens
  IC50: > 10000 nM

## CN(c1ccc(N2CC(F)(F)C2)cc1)c1ccc2c(c1)OCC[C@H]2CNc1cnccc1C(=O)O [Example 196, 3-({[(4R)-7-{[4-(3,3-difluoroazetidin-1-yl)phenyl](methyl)amino}-3,4-dihydro-2H-1-benzopyran-4-yl]methyl}amino)pyridine-4-carboxylic acid]
JMJD2C
  IC50: 100 to 1000 nM
[1]; Homo sapiens
  IC50: ≤ 100 nM

## O=C(O)c1ccncc1NC[C@@H]1CCCc2cc(Oc3ccc(F)cc3F)ccc21 [Example 65, 3-({[(1R)-6-(2,4-difluorophenoxy)-1,2,3,4-tetrahydronaphthalen-1-yl]methyl}amino)pyridine-4-carboxylic acid]
JMJD2C
  IC50: 100 to 1000 nM
[1]; Homo sapiens
  IC50: 100 to 1000 nM

## CN(c1ccc(C#N)cc1)c1ccc2c(c1)OCC[C@H]2CNc1cnccc1C(=O)O [Example 119, 3-({[(4R)-7-[(4-cyanophenyl)(methyl)amino]-3,4-dihydro-2H-1-benzopyran-4-yl]methyl}amino)pyridine-4-carboxylic acid]
JMJD2C
  IC50: 100 to 1000 nM
[1]; Homo sapiens
  IC50: 100 to 1000 nM

## Cc1ccc(N(C)c2ccc3c(c2)OCC[C@H]3CNc2cnccc2C(=O)O)cc1F [Example 151, 3-({[(4R)-7-[(3-fluoro-4-methylphenyl)(methyl)amino]-3,4-dihydro-2H-1-benzopyran-4-yl]methyl}amino)pyridine-4-carboxylic acid]
JMJD2C
  IC50: 100 to 1000 nM
[1]; Homo sapiens
  IC50: ≤ 100 nM

## CCOc1ccc(N(C)c2ccc3c(c2)OCC[C@H]3CNc2cnccc2C(=O)O)cc1 [Example 186, 3-({[(4R)-7-[(4-ethoxyphenyl)(methyl)amino]-3,4-dihydro-2H-1-benzopyran-4-yl]methyl}amino)pyridine-4-carboxylic acid]
JMJD2C
  IC50: 100 to 1000 nM
[1]; Homo sapiens
  IC50: ≤ 100 nM

## CN(c1ccc2c(c1)OCC[C@H]2CNc1cnccc1C(=O)O)c1ccc(Cl)cn1 [Example 152, 3-({[(4R)-7-[(5-chloropyridin-2-yl)(methyl)amino]-3,4-dihydro-2H-1-benzopyran-4-yl]methyl}amino)pyridine-4-carboxylic acid]
JMJD2C
  IC50: 100 to 1000 nM
[1]; Homo sapiens
  IC50: 100 to 1000 nM

## CN(c1ccc(N2CCCC2)cc1)c1ccc2c(c1)CCC[C@H]2CNc1cnccc1C(=O)O [Example 167, 3-({[(1R)-6-{methyl[4-(pyrrolidin-1-yl)phenyl]amino}-1,2,3,4-tetrahydronaphthalen-1-yl]methyl}amino)pyridine-4-carboxylic acid]
JMJD2C
  IC50: 100 to 1000 nM
[1]; Homo sapiens
  IC50: ≤ 100 nM

## CCCc1ccc(N(C)c2ccc3c(c2)OCC[C@H]3CNc2cnccc2C(=O)O)cc1 [Example 208, 3-({[(4R)-7-[methyl(4-propylphenyl)amino]-3,4-dihydro-2H-1-benzopyran-4-yl]methyl}amino)pyridine-4-carboxylic acid]
JMJD2C
  IC50: 1000 to 10000 nM
[1]; Homo sapiens
  IC50: ≤ 100 nM

## COc1cccc(N(C)c2ccc3c(c2)CCC[C@H]3CNc2cnccc2C(=O)O)n1 [Example 121, 3-({[(1R)-6-[(6-methoxypyridin-2-yl)(methyl)amino]-1,2,3,4-tetrahydronaphthalen-1-yl]methyl}amino)pyridine-4-carboxylic acid]
JMJD2C
  IC50: 100 to 1000 nM
[1]; Homo sapiens
  IC50: ≤ 100 nM

## Cc1ccc(N(C)c2ccc3c(c2)OCC[C@H]3CNc2cnccc2C(=O)O)cc1C [Example 206, 3-({[(4R)-7-[(3,4-dimethylphenyl)(methyl)amino]-3,4-dihydro-2H-1-benzopyran-4-yl]methyl}amino)pyridine-4-carboxylic acid]
JMJD2C
  IC50: 100 to 1000 nM
[1]; Homo sapiens
  IC50: ≤ 100 nM

## O=C(O)c1ccncc1NCC1CCCc2cc(C3CCOCC3)ccc21 (stereo not shown) [Example 88, 3-({[6-(oxan-4-yl)-1,2,3,4-tetrahydronaphthalen-1-yl]methyl}amino)pyridine-4-carboxylic acid]
JMJD2C
  IC50: 100 to 1000 nM
[1]; Homo sapiens
  IC50: > 10000 nM

## Cc1ccccc1N(C)c1ccc2c(c1)OCC[C@H]2CNc1cnccc1C(=O)O [Example 111, 3-({[(4R)-7-[methyl(2-methylphenyl)amino]-3,4-dihydro-2H-1-benzopyran-4-yl]methyl}amino)pyridine-4-carboxylic acid]
JMJD2C
  IC50: 100 to 1000 nM
[1]; Homo sapiens
  IC50: 100 to 1000 nM

## CC(c1ccccc1)c1ccc2c(c1)OCC[C@H]2CNc1cnccc1C(=O)O (stereo partly drawn) [Example 198, 3-({[(4R)-7-(1-phenylethyl)-3,4-dihydro-2H-1-benzopyran-4-yl]methyl}amino)pyridine-4-carboxylic acid]
JMJD2C
  IC50: 100 to 1000 nM
[1]; Homo sapiens
  IC50: ≤ 100 nM

## COc1cc2c(c(OC)c1)C(CNc1cnccc1C(=O)O)CCC2 (stereo not shown) [Example 95, 3-{[(6,8-dimethoxy-1,2,3,4-tetrahydronaphthalen-1-yl)methyl]amino}pyridine-4-carboxylic acid]
JMJD2C
  IC50: 100 to 1000 nM
[1]; Homo sapiens
  IC50: > 10000 nM

## CN(c1ccc(C#N)cc1)c1ccc2c(c1)CCC[C@H]2CNc1cnccc1C(=O)O [Example 103, 3-({[(1R)-6-[(4-cyanophenyl)(methyl)amino]-1,2,3,4-tetrahydronaphthalen-1-yl]methyl}amino)pyridine-4-carboxylic acid]
JMJD2C
  IC50: 100 to 1000 nM
[1]; Homo sapiens
  IC50: 100 to 1000 nM

## CN(c1ccncc1)c1ccc2c(c1)CCC[C@H]2CNc1cnccc1C(=O)O [Example 173, 3-({[(1R)-6-[methyl(pyridin-4-yl)amino]-1,2,3,4-tetrahydronaphthalen-1-yl]methyl}amino)pyridine-4-carboxylic acid]
JMJD2C
  IC50: ≤ 100 nM
[1]; Homo sapiens
  IC50: > 10000 nM

## 3-({[(1R)-6-[cyclopentyl(methyl)amino]-1,2,3,4-tetrahydronaphthalen-1-yl]methyl}amino)pyridine-4-carboxylic acid [Example 133]
JMJD2C
  IC50: 100 to 1000 nM
[1]
  IC50: 1000 to 10000 nM

## CN(c1ccc2c(c1)CCC[C@H]2CNc1cnccc1C(=O)O)c1ccn(C)c(=O)c1 [Example 155, 3-({[(1R)-6-[methyl(1-methyl-2-oxo-1,2-dihydropyridin-4-yl)amino]-1,2,3,4-tetrahydronaphthalen-1-yl]methyl}amino)pyridine-4-carboxylic acid]
JMJD2C
  IC50: 100 to 1000 nM
[1]; Homo sapiens
  IC50: > 10000 nM
